Consider 3 compounds from ChEMBL document CHEMBL5329208 (RSC Med Chem, 2023).

Data set [1] has as its system Hepatitis B virus. Briefly: Antiviral activity against HBV infected human HePAD38 cells assessed as reduction in intracellular core protein content incubated for 6 days by Western blot analysis. It is filed as functional, organism-based. The conditions noted are these: dose 1.0 µM, time 6.0 day.
A short description of data set [2]: Water solubility of compound in phosphate buffer at pH 7 by HPLC analysis. It is filed as physicochemical.
Data set [3] has as its system Hepatitis B virus. Briefly: Antiviral activity against HBV infected human HePAD38 cells assessed as reduction in intracellular core protein content at 0.08 uM incubated for 6 days by Western blot analysis. It is filed as functional, organism-based. The settings on record: time 6.0 day.
A short description of data set [4]: Metabolic stability in human liver microsome assessed as intrinsic clearance preincubated for 10 mins followed by NADPH addition and measured after 60 mins by LC-MS/MS analysis. The data set is classed as ADME. The settings on record: liver microsomes, time 70 min, read-out: CLH.
Data set [5] is described as follows: Water solubility of compound in phosphate buffer at pH 7.4 by HPLC analysis. It is filed as physicochemical.
Data set [6] in a line: Metabolic stability in human liver microsome assessed as parent compound remaining preincubated for 10 mins followed by NADPH addition and measured after 60 mins by LC-MS/MS analysis. The data set is classed as ADME. The settings on record: liver microsomes, time 70 min, read-out: Stability.
The test system of data set [7] is Hepatitis B virus. Briefly: Antiviral activity against HBV infected human HePAD38 cells assessed as reduction of HBV DNA level with compound replacement for every 3 days and measured on day 6 by qPCR analysis. The data set is classed as functional, organism-based. A general note: In qPCR the cycle at which signal appears reflects the starting amount.
Data set [8] in a line: Metabolic stability in human liver assessed as intrinsic clearance preincubated for 10 mins followed by NADPH addition and measured after 60 mins by LC-MS/MS analysis. The data set is classed as ADME, tissue-based. The conditions noted are these: time 70 min, read-out: CLH.
Data set [9] is described as follows: Water solubility of compound in phosphate buffer at pH 2 by HPLC analysis. The data set is classed as physicochemical.
Data set [10] has as its system Hepatitis B virus. Kind of data set: Antiviral activity against HBV infected in human HepG2.2.15 cells assessed as reduction in extracellular HBV DNA level incubated for 8 days by Southern blotting. The data set is classed as functional, organism-based. The conditions noted are these: HepG2.2.15, 192 h.
Data set [11] can be described thus: Metabolic stability in human liver microsome assessed as half life preincubated for 10 mins followed by NADPH addition and measured after 60 mins by LC-MS/MS analysis. The data set is classed as ADME. The conditions noted are these: liver microsomes, time 70 min. Background: Microsomes from liver hold many membrane-bound enzymes, among them those of drug oxidation.

Data set [12] relates to Hepatitis B virus. Kind of data set: Antiviral activity against HBV infected human HePAD38 cells assessed as reduction in intracellular core protein content at 0.003 uM incubated for 6 days by Western blot analysis. It is filed as functional, organism-based. The conditions noted are these: time 6.0 day.
The target in data set [13] is T1, hERG (KCNH2) (Homo sapiens, UniProt Q12809). Briefly: Inhibition of hERG expressed in HEK293 cells at 10 uM at holding potential of -80 mV by whole cell patch clamp assay relative to control. The data set is classed as toxicity, cell-based. The conditions noted are these: HEK293 cells expressing hERG. (In general: The hERG channel carries a current that helps repolarise heart muscle cells.)

Data set [14] concerns the target CYP2C19 (Homo sapiens, UniProt P33261). Kind of data set: Inhibition of CYP2C19 (unknown origin) at 10 uM using s-mephenytoin as substrate incubated for 10 mins in presence of NADPH by LC-MS/MS analysis relative to control. The settings on record: probe S-mephenytoin. It is filed as ADME.
Data set [15] has as its target T2, CYP1A2 (Homo sapiens, UniProt P05177).
T2 sequence (P05177 whole entry): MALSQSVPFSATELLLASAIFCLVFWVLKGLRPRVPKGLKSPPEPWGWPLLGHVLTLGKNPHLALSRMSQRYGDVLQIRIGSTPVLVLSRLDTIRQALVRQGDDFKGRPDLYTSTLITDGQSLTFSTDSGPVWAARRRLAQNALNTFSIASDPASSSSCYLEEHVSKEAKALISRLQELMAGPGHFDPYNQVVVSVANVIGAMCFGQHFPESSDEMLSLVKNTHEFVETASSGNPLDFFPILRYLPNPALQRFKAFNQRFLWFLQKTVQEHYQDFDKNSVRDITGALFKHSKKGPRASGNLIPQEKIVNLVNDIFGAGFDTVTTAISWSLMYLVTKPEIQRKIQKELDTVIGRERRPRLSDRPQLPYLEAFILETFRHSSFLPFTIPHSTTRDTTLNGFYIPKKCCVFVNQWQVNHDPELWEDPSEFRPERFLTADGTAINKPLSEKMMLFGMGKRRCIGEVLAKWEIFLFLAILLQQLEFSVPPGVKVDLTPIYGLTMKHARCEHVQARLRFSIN
Kind of data set: Inhibition of CYP1A2 (unknown origin) at 10 uM using phenacetin as substrate incubated for 10 mins in presence of NADPH by LC-MS/MS analysis relative to control. The settings on record: probe phenacetin. The data set is classed as ADME.

Data set [16] is described as follows: Selectivity index, ratio of CC50 for cytotoxicity against human HePAD38 cells assessed as reduction in cell viability to EC50 for antiviral activity against HBV infected human HePAD38 cells assessed as reduction of HBV DNA level. The data set is classed as toxicity, cell-based. The conditions noted are these: read-out: Ratio CC50/EC50.
In data set [17] the target is CYP2C9 (Homo sapiens, UniProt P11712). Briefly: Inhibition of CYP2C9 (unknown origin) at 10 uM using diclofenac as substrate incubated for 10 mins in presence of NADPH by LC-MS/MS analysis relative to control. It is filed as ADME. The settings on record: probe diclofenac.
Data set [18] has as its system Hepatitis B virus. Kind of data set: Antiviral activity against HBV infected human HePAD38 cells assessed as reduction in intracellular core protein content upto 10 uM incubated for 6 days. The data set is classed as functional, organism-based. The conditions noted are these: time 6.0 day.
Data set [19] in a line: Cytotoxicity against human HePAD38 cells assessed as reduction in cell viability by CCK-8 assay. The data set is classed as toxicity, cell-based.
Data set [20] relates to Hepatitis B virus. Briefly: Antiviral activity against HBV infected human HePAD38 cells assessed as reduction in intracellular capsid content upto 10 uM incubated for 6 days. It is filed as functional, organism-based. The conditions noted are these: time 6.0 day.
Data set [21] concerns the target CYP2D6 (Homo sapiens, UniProt P10635). Kind of data set: Inhibition of CYP2D6 (unknown origin) at 10 uM using dextromethorphan as substrate incubated for 10 mins in presence of NADPH by LC-MS/MS analysis relative to control. It is filed as ADME. The conditions noted are these: probe dextromethorphan.
Data set [22] concerns the target T1, hERG (KCNH2). Kind of data set: Inhibition of hERG expressed in HEK293 cells at 1 uM at holding potential of -80 mV by whole cell patch clamp assay relative to control. It is filed as toxicity, cell-based. The conditions noted are these: HEK293 cells expressing hERG.
Data set [23] addresses CYP3A (Homo sapiens, UniProt P08684+P20815+P24462+Q9HB55). Kind of data set: Inhibition of CYP3A (unknown origin) at 10 uM using midazolam as substrate incubated for 10 mins in presence of NADPH by LC-MS/MS analysis relative to control. The data set is classed as ADME, protein assay. The conditions noted are these: probe midazolam.
Data set [24] has as its system Hepatitis B virus. Briefly: Antiviral activity against HBV infected human HePAD38 cells assessed as reduction in intracellular core protein content at 0.016 uM incubated for 6 days by Western blot analysis. The data set is classed as functional, organism-based. The conditions noted are these: time 6.0 day.

What is called solubility is the dissolved amount per volume that the medium holds. A higher solubility goes with much dissolved substance. The EC50 is the concentration needed to bring the measured effect to its halfway point. For orientation: half-life means how long it takes for the measured level to halve. As usually defined, the inhibition is how much of the control response was suppressed. As a reminder, the CC50 is the concentration giving 50% cytotoxicity.

≈ marks a conversion by molar mass, not a printed value. Calls of active or inactive are those of the source. No cut-off for these calls is given here.

T1 sequence (Q12809 whole entry): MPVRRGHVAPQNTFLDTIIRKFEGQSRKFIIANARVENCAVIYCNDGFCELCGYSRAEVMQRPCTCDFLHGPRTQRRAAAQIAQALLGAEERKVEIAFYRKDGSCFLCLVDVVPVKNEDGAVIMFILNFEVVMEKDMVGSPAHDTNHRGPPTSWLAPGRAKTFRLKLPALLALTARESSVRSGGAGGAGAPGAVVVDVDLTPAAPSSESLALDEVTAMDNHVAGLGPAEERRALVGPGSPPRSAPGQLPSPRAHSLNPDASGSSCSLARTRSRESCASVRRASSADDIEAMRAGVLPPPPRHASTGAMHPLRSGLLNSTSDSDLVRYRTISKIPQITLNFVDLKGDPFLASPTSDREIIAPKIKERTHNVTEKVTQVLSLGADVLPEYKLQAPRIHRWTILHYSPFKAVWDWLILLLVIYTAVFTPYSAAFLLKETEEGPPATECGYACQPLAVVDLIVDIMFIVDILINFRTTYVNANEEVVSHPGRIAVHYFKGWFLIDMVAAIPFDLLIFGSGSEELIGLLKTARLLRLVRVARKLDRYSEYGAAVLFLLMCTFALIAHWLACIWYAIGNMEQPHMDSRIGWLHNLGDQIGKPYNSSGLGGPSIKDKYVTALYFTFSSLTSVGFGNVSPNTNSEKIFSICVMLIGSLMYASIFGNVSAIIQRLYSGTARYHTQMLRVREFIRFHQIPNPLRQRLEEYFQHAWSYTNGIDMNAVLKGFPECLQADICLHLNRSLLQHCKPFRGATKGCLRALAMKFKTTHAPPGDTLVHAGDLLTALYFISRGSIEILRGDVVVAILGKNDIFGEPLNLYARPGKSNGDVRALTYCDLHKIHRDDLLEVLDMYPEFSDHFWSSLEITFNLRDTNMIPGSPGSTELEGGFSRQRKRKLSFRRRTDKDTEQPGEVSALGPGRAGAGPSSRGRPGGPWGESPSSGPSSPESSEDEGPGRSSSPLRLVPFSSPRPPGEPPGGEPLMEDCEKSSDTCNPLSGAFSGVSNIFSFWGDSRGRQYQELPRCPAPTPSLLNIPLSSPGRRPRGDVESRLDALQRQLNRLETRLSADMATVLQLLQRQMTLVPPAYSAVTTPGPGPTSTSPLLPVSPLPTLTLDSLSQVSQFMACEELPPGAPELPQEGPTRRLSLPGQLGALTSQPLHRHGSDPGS
CYP2C19, sequence (P33261 whole entry): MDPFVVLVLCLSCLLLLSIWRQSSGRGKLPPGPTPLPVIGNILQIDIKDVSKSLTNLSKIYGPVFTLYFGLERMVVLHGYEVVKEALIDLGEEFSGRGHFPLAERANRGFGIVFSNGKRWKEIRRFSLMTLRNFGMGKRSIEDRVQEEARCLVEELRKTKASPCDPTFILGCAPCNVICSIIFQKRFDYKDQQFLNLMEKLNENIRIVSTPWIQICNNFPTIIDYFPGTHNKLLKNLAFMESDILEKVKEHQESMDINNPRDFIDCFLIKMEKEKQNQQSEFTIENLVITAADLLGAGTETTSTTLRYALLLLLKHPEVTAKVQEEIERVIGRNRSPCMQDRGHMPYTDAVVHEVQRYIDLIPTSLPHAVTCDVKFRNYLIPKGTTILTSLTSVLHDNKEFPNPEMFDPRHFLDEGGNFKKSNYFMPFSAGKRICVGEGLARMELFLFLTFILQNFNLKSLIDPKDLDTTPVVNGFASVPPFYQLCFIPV
CYP2C9, sequence (P11712 whole entry): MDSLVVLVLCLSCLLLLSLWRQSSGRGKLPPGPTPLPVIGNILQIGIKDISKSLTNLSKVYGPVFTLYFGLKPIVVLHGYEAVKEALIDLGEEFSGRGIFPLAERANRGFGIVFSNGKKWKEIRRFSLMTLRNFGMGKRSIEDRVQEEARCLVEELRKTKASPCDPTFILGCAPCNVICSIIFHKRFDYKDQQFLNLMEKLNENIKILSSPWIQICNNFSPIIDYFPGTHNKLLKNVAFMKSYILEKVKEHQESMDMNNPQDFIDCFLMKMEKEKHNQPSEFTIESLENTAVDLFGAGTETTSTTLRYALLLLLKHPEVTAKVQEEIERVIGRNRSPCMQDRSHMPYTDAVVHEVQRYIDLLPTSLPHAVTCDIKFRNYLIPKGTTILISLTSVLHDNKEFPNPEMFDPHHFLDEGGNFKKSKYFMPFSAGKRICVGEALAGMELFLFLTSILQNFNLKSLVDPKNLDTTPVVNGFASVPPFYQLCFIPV
CYP2D6, sequence (P10635 whole entry): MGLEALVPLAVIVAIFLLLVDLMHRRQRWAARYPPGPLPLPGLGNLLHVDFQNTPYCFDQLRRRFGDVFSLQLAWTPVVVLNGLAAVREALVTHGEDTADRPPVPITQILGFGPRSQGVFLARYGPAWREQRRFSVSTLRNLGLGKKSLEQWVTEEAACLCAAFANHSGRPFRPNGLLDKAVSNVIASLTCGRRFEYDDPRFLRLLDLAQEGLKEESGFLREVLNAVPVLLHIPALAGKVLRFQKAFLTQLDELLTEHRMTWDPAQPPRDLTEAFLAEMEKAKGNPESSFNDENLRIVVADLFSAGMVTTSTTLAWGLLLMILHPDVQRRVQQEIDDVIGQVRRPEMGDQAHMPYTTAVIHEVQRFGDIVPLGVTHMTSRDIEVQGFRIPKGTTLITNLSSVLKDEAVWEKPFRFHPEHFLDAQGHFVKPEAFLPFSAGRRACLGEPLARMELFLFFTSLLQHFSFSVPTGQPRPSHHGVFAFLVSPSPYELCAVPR

Take `CCOC(=O)C1=C(CN2CCOCC2)NC(c2nccs2)=NC1c1ccc(F)cc1Br` (stereo unspecified): the Activity entry in data set [1] was “Dose-Dependent Effect”. The solubility was less than 1.19 µg/mL in [2], less than 1.19 µg/mL in [5] and 215 µg/mL (≈ 423 µM) in data set [9]. Moreover, the outcome in data set [3] was Active. In addition, in data set [4], the microsomal CLint is 663 µL/min/mg. Further, the remaining at 1 h in [6] was found to be 0.1%. Moreover, the values for the concentration for a half-maximal effect (EC50) in data set [7] and in data set [10] were 7 nM and 12 nM, respectively. In data set [8], the CLint scaled worked out at 596 mL/min/kg. In addition, the half-life in data set [11] came to 0.035 h.

In the case of `CCOC(=O)C1=C(CN2CCN(C(/C=C/c3ccccc3)C(=O)O)CC2)NC(c2nccs2)=NC1c1ccc(F)cc1Br` (stereo unspecified), the result in data set [12], in data set [18] and in [20] was Active. For the same compound, the solubility is 1.96 µg/mL (≈ 2.93 µM) in [2], less than 0.58 µg/mL in data set [5] and 361 µg/mL (≈ 541 µM) in data set [9]. Also, in data set [13], the inhibition at 10 µM was 93.4%. In addition, the microsomal CLint in data set [4] worked out at 14.8 µL/min/mg. Besides, the inhibition at 10 min, 10 µM came to 18.1% in [14]; 0% in data set [15]; 26.2% in [17]; 12.4% in [21]; 44.6% in [23]. Besides, the selectivity ratio in [16] was 1060. For the same compound, the remaining at 1 h in [6] was found to be 64.6%. For the same compound, in [7], the half-maximal effective concentration (EC50) came out at 21 nM. The 50% cytotoxic concentration (CC50) in data set [19] was found to be 22400 nM. The CLint scaled in data set [8] turned out to be 13.3 mL/min/kg. Further, the inhibition at 1 µM in [22] is 11.7%. The half-life in data set [11] is 1.56 h.

On to `CCOC(=O)C1=C(CN2CCN(C(C(=O)O)c3cccc([N+](=O)[O-])c3)CC2)NC(c2nccs2)=NC1c1ccc(F)cc1Br` (stereo unspecified), for which the solubility in data set [2] is 6.85 µg/mL (≈ 9.96 µM); in [5], 25.5 µg/mL (≈ 37.1 µM); in data set [9], 375 µg/mL (≈ 545 µM). In data set [13], this compound displayed an inhibition at 10 µM of 72.7%. Besides, the microsomal CLint in [4] amounted to 12.8 µL/min/mg. Besides, the inhibition at 10 min, 10 µM in data set [14] came out at 15.3%; in data set [15], 8.9%; in [17], 31.6%; in data set [21] it was 34%; in data set [23], 17.1%. Also, in data set [16], the selectivity ratio amounted to 1220. Besides, the result in [18], in data set [24] and in data set [20] was Active. Besides, in [6], the remaining at 1 h is 68%. Also, the 50% effective concentration (EC50) in data set [7] amounted to 20 nM. The cytotoxic concentration (CC50) in [19] came out at 29200 nM. For the same compound, the CLint scaled in data set [8] came to 11.5 mL/min/kg. Also, the inhibition at 1 µM in data set [22] was determined as 15.7%. Besides, the half-life in data set [11] turned out to be 1.8 h.
